Experimental findings from patent publication US10441537B2, “Unit doses, aerosols, kits, and methods for treating heart conditions by pulmonary administration” (InCarda Therapeutics, Inc., priority 2017, dated 2019) are described below.

Counter-ions that a name gives are not always drawn.

In series [1] the test system is induced supraventricular tachycardia. The experiment in a line: Supraventricular tachycardia (SVT) model in anesthetized dogs, IT vs IV. The format is in vivo. The following applies: for cardiovascular effect when given by intratracheal instillation (summary): dog, in vivo. Here is the method:
Supraventricular Tachycardia Model:
Anesthesia/Surgical Preparation:
A venous catheter was placed in a peripheral vessel (i.e., cephalic) for administration of anesthetic(s). For anesthesia induction, all animals were given a combination of diazepam (˜0.5 mg/kg) and ketamine (˜10 mg/kg) intravenously through this venous catheter. Anesthesia was sustained until completion of the study with an intravenous infusion of pentobarbital (5-15 mg/kg/hr). Following induction, animals were endotracheally intubated and mechanically ventilated (˜12 breaths/min with a tidal volume of 200-300 mL).
Subsequently, a cut-down on a jugular vein permitted the introduction of a pacing lead into the right atrium. Similarly, for arterial pressure monitoring, a solid-state micromanometer catheter (Millar Instruments) was advanced into the aortic root via a cut-down over an artery (e.g., femoral, carotid). Transthoracic electrodes forming ECG lead II was placed. For vehicle/test article delivery, a 4F catheter was introduced through the trachea and wedged into a small airway, and a venous catheter was placed in a peripheral vessel (i.e., cephalic).
Following instrumentation/hemodynamic stabilization (for at least 15 minutes), right atrial pacing (5-10 V, 40 Hz, 2 ms pulses) was established in order to induce supraventricular tachycardia (SVT); pacing and SVT was sustained throughout the duration of the experiments. Approximately 5 minutes after onset of SVT and while monitoring ECG/arterial pressure continuously, the animals were administered three escalating doses (one at a time) of a test article; each dose was delivered as a bolus (˜3 mL) directly into a small airway through the intratracheal catheter (IT). Following dosing, the heart-rate (HR) and arterial pressure response were monitored for 15 minutes.
Subsequently (once the response to three IT doses had been recorded), hemodynamic recovery was allowed for approximately 30 minutes, and the electrocardiographic/hemodynamic response to the highest test-article dose was re-evaluated; however, for comparison purposes, this dose was delivered intravenously (IV).
Overall, two groups/test-articles were studied, and up to two animals were assigned to each group (n=2/group): one group received esmolol HCL (0.5-1.0 mg/kg, ESM), while the other received adenosine (0.25-1.0 mg/kg, ADN); only one test article was administered to per animal.

In series [2] the test system is induced atrial fibrillation. The series can be described thus: Induced atrial fibrillation model in anesthetized dogs, intratracheal (IT) administration. The format is in vivo. The following applies: for conversion of induced atrial fibrillation to normal sinus rhythm: pulmonary dose 0.25 mg/kg body weight (FIG. 13), hydrochloride. As for the experimental part:
Atrial Fibrillation Model: Anesthesia/Surgical Preparation: A venous catheter was placed in a peripheral vessel (i.e., cephalic) for administration of anesthetic. […] Following induction, animals were endotracheally intubated and mechanically ventilated (˜12 breaths/minute with a tidal volume of 200-300 mL). Subsequently, a cut-down on a jugular vein permitted introduction of a pacing lead into the right atrium. Transthoracic electrodes forming ECG lead II were placed. For test/vehicle article delivery, a 4F catheter was introduced through the trachea and wedged into a small airway, and a venous catheter was placed in a peripheral vessel (i.e., cephalic). […] Approximately 5 min after administration of this parasympathomimetic was started; the following experiments were performed: […] Observations were made for up to 10 minutes. […] Vehicle was only water.

Turning to `Nc1ncnc2c1ncn2[C@@H]1O[C@H](CO)[C@@H](O)[C@H]1O` [adenosine], the “cardiovascular effect when given by intratracheal instillation (summary)” value (shortened to “cardiovascular effect when given”) in series [1] is reported as “a clear response was not observed”. Also, in series [1] (via the lung), the “effect on the heart” value was “did not have any effect on the heart”.

Consider `COc1ccc([C@@H]2Sc3ccccc3N(CCN(C)C)C(=O)[C@@H]2OC(C)=O)cc1` [diltiazem, diltiazem hydrochloride], for which the “pH of solution in water” value (3.5 mg/mL) is listed as 6.7. Further, for the setting “distilled water, diltiazem hydrochloride 50 mg/ml, flecainide acetate 30 mg/ml”, the appearance of solution result was “clear with no visible particulate matter”. The “pulmonary vs IV route” value in series [1] (0.25 mg/kg) is given as “comparable in all aspects”. Further, the PR interval entry in series [1] (IV or pulmonary route) is reported as “prolonged the PR interval”. Also, in series [2] (IT bolus), the “conversion of Atrial Fibrillation to normal sinus rhythm” value is “rapidly converted the Atrial Fibrillation to normal sinus rhythm”. In addition, in series [2] (dog, in vivo), the “cardiovascular effect when given” value is listed as “clear cardiovascular effect”. Also, the “mean arterial blood pressure (MAP)” value in series [2] (dog, in vivo, 0.25 mg/kg) is given as “notable drop in mean arterial blood pressure”. In addition, the PQ interval result in series [2] (pulmonary dose 0.25 mg/kg) is “prolonged the PQ interval”. For the same molecule, the heart rate result in series [2] (pulmonary dose 0.25 mg/kg) is recorded as “slowed down but marginally”. For the same molecule, the “conversion of induced atrial fibrillation to normal sinus rhythm” value is listed as “converted the induced atrial fibrillation to normal sinus rhythm” in series [2] (0.25 mg/kg) and “Afib converting after administration” in series [2] (listed as diltiazem HCl, 0.25 mg/kg).

Regarding `CN(CCOc1ccc(NS(C)(=O)=O)cc1)CCc1ccc(NS(C)(=O)=O)cc1` [dofetilide], the “effect on ventricular rate” value in series [2] (IT bolus) is recorded as “marginally slowed the ventricular rate”. Moreover, the “cardiovascular effect when given” value in series [2] (dog, in vivo) is listed as “probable effect”. In addition, in series [2] (escalating pulmonary doses of 10-40 mcg/kg body weight), the heart rate result is “minor reduction in heart rate”.

`COC(=O)CCc1ccc(OCC(O)CNC(C)C)cc1` (stereo not shown) [esmolol, esmolol HCl]: the “period of AV block” value in series [1] (0.5 mg/kg via the lung (FIG. 17, 18)) was “AV block induced”. The “period of AV block” value in series [1] (0.75 mg/kg via the lung (FIG. 20)) is “AV block induced”. For the same molecule, in series [1], the “cardiovascular effect when given” value is listed as “probable effect”. Further, in series [1] (elevating IT doses), the AV block is 2nd degree AV block at lower doses and the “PR intervals in the ECG traces” value was “prolonging the PR intervals”. Moreover, the electrophysiological effects result in series [1] (higher dose 1.0 mg/kg) is reported as “did not produce the same electrophysiological effects”.
